Data as given in US3932668A, “Composition for treating swine scour” (priority 1971, dated 1976).
In brackets after ≈: the same amount, converted by molar mass. Entries after “also recorded” stand apart in the source; their conditions may differ. Where a name gives a salt, the structure may show the parent alone.

Legend:
[1] = Comparative experiment: effect of kanamycin sulfate against scours of swine (control); assay type: in vivo; set-up: key to Severity of Conditions, 1st day / Severity of Conditions, 2nd day / Severity of Conditions, 3rd day / Severity of Conditions, 4th day / Severity of Conditions, 5th day: +++: watery feces; ++: muddy feces; +: soft feces; --: normal feces; details: individual swine (one table line each), single dosage 60-150 mg/Kg
From the text: Effect of Kanamycin Sulfate against Scours of […]

Escherichia coli 0-139 = assay: Antimicrobial spectrum, minimum inhibition concentration; assay type: cell-based; details: 0139
[2] = system: Aspergillus fumigatus Saito; assay: as above; assay type: cell-based
Escherichia coli 0-135 = assay: as above; assay type: cell-based; details: 0135
El-tor vibrio = assay: as above; assay type: cell-based
[3] = system: Staphylococcus aureus 209-p; assay: as above; assay type: cell-based
Escherichia coli 0-20 = assay: as above; assay type: cell-based; details: 020
[4] = Field clinical test to treat the scours of pigs; assay type: in vivo; set-up: key to Severity of Conditions, 4th day / Severity of Conditions, 5th day: +++: watery feces; ++: muddy feces; +: soft feces; --: normal feces
Protocol: In use, 2,3,3-triiodo-allyl-methyl ether in crystal form is formed into a fine powder, and either coated with gelatin to a content of about 10% of the ether powder or diluted 10-fold with lactose. It is used in an amount of about 10 mg or more per kilogram of the body weight of the swine in one dosage, and may be increased according to the case. Usually, it is administered twice on the first day, and thereafter, once a day for 3 to 4 days. By this method of treatment, the disease is generally cured in about 5 days.
2,3,3-triiodo-allyl-methyl ether was finely divided in a mortar, and then diluted 10-fold with lactose. A field clinical test was performed using this formulation to treat the scours of 41 pigs. The formulation was administered orally twice on the first day and once a day for the next 3 to 4 days. In this table, the symbols +++, ++, + and -- have the following meanings: […]

Tricophyton asteroides = assay: Antimicrobial spectrum, minimum inhibition concentration; assay type: cell-based
Salmonella typhi O-901-W = assay: as above; assay type: cell-based; details: Salmonella enterica
[5] = Absorption, residue and cross resistance as feed additive (poultry)
[6] = Absorption, residue and cross resistance as agent for swine scours
[7] = system: Cryptococcus neoformans 301; assay: Antimicrobial spectrum, minimum inhibition concentration; assay type: cell-based
[8] = Toxicity (LD50) against mice; assay type: in vivo; details: mouse, in vivo
From the text: (§1) As is well known, LD50, or the median lethal dose, is the dose which is fatal to 50% of the test animals, and the larger the LD50 is, the lower the toxicity of the test material is.

mice = assay: Toxicity (LD50) against mice; assay type: in vivo; details: intraperitoneal administration
From the text: as §1

Escherichia coli 0-78 = assay: Antimicrobial spectrum, minimum inhibition concentration; assay type: cell-based; details: 078
Escherichia coli 0-83 = assay: as above; assay type: cell-based; details: 083
[9] = system: Streptococcus haemolyticus cook; assay: as above; assay type: cell-based
Escherichia coli 0-16 = assay: as above; assay type: cell-based; details: 016
Escherichia coli 0-142 = assay: as above; assay type: cell-based; details: 0142
[10] = Growth (increased body weights) of starting chicks raised on mixed feed for 10 weeks; assay type: in vivo; details: for Weight Increase Index: non-added group = 100.0
From the text: An amount of 2,3,3-triiodo-allyl-methyl ether as shown in Table 3 was uniformly mixed into one ton of a poultry compound feed. The 2,3,3-triiodo-allyl-methyl ether had been premixed with 100 times its weight of defatted rice bran. Using this mixed feed, 20 starting chicks were raised for 10 weeks.

Candida albicans Totuka = assay: Antimicrobial spectrum, minimum inhibition concentration; assay type: cell-based
[11] = individual pigs (one table line each), oral, single dosage 35-200 mg/Kg, diluted 10-fold with lactose
[12] = chicks, inferred from body weight at great quantities
[13] = chicks, comparative antibiotic, 20 g

## NC[C@H]1O[C@H](O[C@H]2[C@H](O)[C@@H](O[C@H]3O[C@H](CO)[C@@H](O)[C@H](N)[C@H]3O)[C@H](N)C[C@@H]2N)[C@H](O)[C@@H](O)[C@@H]1O [Kanamycin Sulfate]
[1]
  Evaluation: Cured; also recorded: Deaths
  Severity of Conditions, 1st day: ++ and + and +++
  Severity of Conditions, 2nd day: ++ and + and -- and +++
  Severity of Conditions, 3rd day: + and ++ and --
  Severity of Conditions, 4th day: -- and + and ++
  Severity of Conditions, 5th day: -- and + and ++

## COCC(I)=C(I)I [2,3,3-triiodo-allyl-methyl ether, methyl-2,3,3-triiodoallylether]
Escherichia coli 0-139
  MIC: 12.5 mg/L (≈ 27.8 µM)
[2]
  MIC: 3.12 mg/L (≈ 6.94 µM)
Escherichia coli 0-135
  MIC: 3.12 mg/L (≈ 6.94 µM)
El-tor vibrio
  MIC: 3.12 mg/L (≈ 6.94 µM)
[3]
  MIC: 6.25 mg/L (≈ 13.9 µM)
Escherichia coli 0-20
  MIC: 0.78 mg/L (≈ 1.73 µM)
[4]; Table 4, comparison with kanamycin sulfate
  Effect against the diarrhea of swine: superior effect
[4]; [11]
  Severity of Conditions, 4th day: -- and + and ++
  Severity of Conditions, 5th day: --
[4]; swine scours, about 10 mg or more per kg, twice first day, then once a day for 3 to 4 days
  Time in which the disease is generally cured: about 5 days
Tricophyton asteroides
  MIC: 1.56 mg/L (≈ 3.47 µM)
Salmonella typhi O-901-W
  MIC: 3.12 mg/L (≈ 6.94 µM)
[5]; feed additive for poultry
  Cross resistance: does not have cross resistance
[5]; poultry
  Absorption by the digestive tract of poultry: hardly absorbed
  Residue build-up: free from residue build-up
[6]; agent for swine scours
  Cross resistance: does not have cross resistance
[6]; swine
  Absorption by the digestive tract of swine: hardly absorbed
  Build-up of residue: does not cause a build-up of residue
[7]
  MIC: 0.78 mg/L (≈ 1.73 µM)
[8]; ip, intraperitoneal administration
  LD50: 50 to 100 mg/kg
[8]; oral administration
  LD50: > 1000 mg/kg
[8]; times or more as great, read-out: LD50 in oral administration relative to that in intraperitoneal administration
  selectivity ratio: 10 to 20
mice
  LD50: 50 to 100 mg/kg
Escherichia coli 0-78
  MIC: 3.12 mg/L (≈ 6.94 µM)
Escherichia coli 0-83
  MIC: 12.5 mg/L (≈ 27.8 µM)
[9]
  MIC: 12.5 mg/L (≈ 27.8 µM)
Escherichia coli 0-16
  MIC: 6.25 mg/L (≈ 13.9 µM)
Escherichia coli 0-142
  MIC: 6.25 mg/L (≈ 13.9 µM)
[10]; all groups fed the additive
  Body weight after 10 weeks compared with the group not given the additive: showed an increase in body weight after 10 weeks
[10]; chicks, 1 g/ton of feed
  Body weight, 2nd week: 120.4
  Body weight, 4th week: 357.4
  Body weight, 6th week: 682.4
  Body weight, 8th week: 1084.4
  Body weight, 10th week: 1329.7
  Weight Increase Index: 109.9
[10]; chicks, 5 g/ton of feed
  Body weight, 2nd week: 125.9
  Body weight, 4th week: 362.1
  Body weight, 6th week: 706.2
  Body weight, 8th week: 1099.3
  Body weight, 10th week: 1408.4
  Weight Increase Index: 116.4
[10]; chicks, 10 g/ton of feed
  Body weight, 2nd week: 147.6
  Body weight, 4th week: 388.0
  Body weight, 6th week: 764.0
  Body weight, 8th week: 1150.7
  Body weight, 10th week: 1512.1
  Weight Increase Index: 125.0
[10]; chicks, 20 g/ton of feed
  Body weight, 2nd week: 120.4
  Body weight, 4th week: 350.2
  Body weight, 6th week: 647.3
  Body weight, 8th week: 990.7
  Body weight, 10th week: 1303.1
  Weight Increase Index: 109.7
[10]; chicks, 50 g/ton of feed
  Body weight, 2nd week: 124.3
  Body weight, 4th week: 359.4
  Body weight, 6th week: 671.3
  Body weight, 8th week: 1030.5
  Body weight, 10th week: 1382.2
  Weight Increase Index: 114.3
[10]; chicks, 100 g/ton of feed
  Body weight, 2nd week: 128.2
  Body weight, 4th week: 349.8
  Body weight, 6th week: 663.1
  Body weight, 8th week: 946.7
  Body weight, 10th week: 1223.7
  Weight Increase Index: 101.2
[10]; chicks, 200 g/ton of feed
  Body weight, 2nd week: 106.5
  Body weight, 4th week: 343.2
  Body weight, 6th week: 686.3
  Body weight, 8th week: 1039.6
  Body weight, 10th week: 1298.3
  Weight Increase Index: 107.3
[10]; chicks, addition of great quantities
  Effect of great quantities on body weight: did not cause a decrease in body weight
[10]; [12]
  Absorption by the digestive tract: little absorbed
  Side-effects: does not have side-effects
Candida albicans Totuka
  MIC: 3.12 mg/L (≈ 6.94 µM)

## CC1(C)S[C@@H]2[C@H](NC(=O)Cc3ccccc3)C(=O)N2[C@H]1C(=O)O [Procaine Pencillin G]
[10]; [13]
  Body weight, 2nd week: 127.3
  Body weight, 4th week: 374.6
  Body weight, 6th week: 664.2
  Body weight, 8th week: 1012.9
  Body weight, 10th week: 1324.0
  Weight Increase Index: 109.5
